Results taken from US20260042764A1, “COMPOSITIONS AND METHODS FOR INHIBITION OF KRAS” (TheRas, Inc., priority 2022, published 2026).

Columns and labels:
[1] = target: T1, Avi-KRAS G12D (1-169) GppNHp/RAF1 RBD-3xFLAG (52-151) (Homo sapiens, UniProt P01116, G12D); test: Raf1-KRAS G12D-GppNHP disruption HTRF assay (Biological Example 1); format: binding
T1 construct: Avi-KRAS G12D (1-169)
How it was run: (§1)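 HTRF PPI disruption; buffer 50 mM Tris pH 7.5, 100 mM NaCl, 5 mM MgCl2, 0.1% BSA, 0.01% Tween, 10% DMSO. Protein mix 1 h RT shaking, reagent mix 1 h RT shaking. Data as % activity vs DMSO (100%).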

[2] = target: T2, Avi-KRAS G12R (1-169) GppNHp/RAF1 RBD-3xFLAG (52-151) (Homo sapiens, UniProt P01116, G12R); test: Raf1-KRAS G12R-GppNHP disruption HTRF assay (Biological Example 1); format: binding
T2 construct: Avi-KRAS G12R (1-169)
How it was run: as §1

[3] = target: T3, Avi-KRAS G12V (1-169) GppNHp/RAF1 RBD-3xFLAG (52-151) (Homo sapiens, UniProt P01116, G12V); test: Raf1-KRAS G12V-GppNHP disruption HTRF assay (Biological Example 1); format: binding
T3 construct: Avi-KRAS G12V (1-169)
How it was run: as §1

[4] = target: T4, Avi-KRAS WT (1-169) GppNHp/RAF1 RBD-3xFLAG (52-151) (Homo sapiens, UniProt P01116); test: Raf1-KRAS WT-GppNHP disruption HTRF assay (Biological Example 1); format: binding
T4 construct: Avi-KRAS WT (1-169)
How it was run: as §1

GP2d cells (KRAS G12D) = test: Cell-based pERK HTRF assay in GP2d cell (Biological Example 2); details: GP2d, GP2d (KRAS G12D) cells, pERK HTRF
How it was run: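 Cells grown in DMEM with 10% FBS were exposed to compound for 60 min at 0.25% DMSO, using a 9-point half-log series starting at 1 μM or 100 nM. Lysates were then mixed with d2 and Eu cryptate antibodies for 4–24 h at room temperature, and pERK was read by HTRF.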

SW620 cells (KRAS G12V) = test: Cell-based pERK HTRF assay in SW620 cell (Biological Example 4); details: Homo sapiens, SW-620, SW620 (KRAS G12V) cells, pERK HTRF
How it was run: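 Read-out: HTRF pERK signal (excitation 320 nm, emission 615 nm) from lysates of SW620 cells after 4 h compound exposure. Dose range was 9 points, half-log steps from 1 μM, in 0.25% DMSO; antibody incubation ran 4–24 h at room temperature.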

[5] = KRAS G12D, GppNHp-loaded, class symbols
[6] = KRAS G12R, GppNHp-loaded, class symbols
[7] = KRAS G12V, GppNHp-loaded, class symbols
[8] = KRAS WT, GppNHp-loaded, class symbols
[9] = KRAS G12D, GppNHp-loaded, Table 11
[10] = KRAS G12R, GppNHp-loaded, Table 11
[11] = KRAS G12V, GppNHp-loaded, Table 11
[12] = KRAS WT, GppNHp-loaded, Table 11

T4 sequence (P01116 1-169 isoform P01116-2): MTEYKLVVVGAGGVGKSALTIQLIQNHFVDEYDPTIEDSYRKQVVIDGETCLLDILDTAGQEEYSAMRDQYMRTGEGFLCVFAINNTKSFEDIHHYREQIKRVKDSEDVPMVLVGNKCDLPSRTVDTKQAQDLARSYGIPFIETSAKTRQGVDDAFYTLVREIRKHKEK
T2 sequence (P01116 1-169 isoform P01116-2 G12R): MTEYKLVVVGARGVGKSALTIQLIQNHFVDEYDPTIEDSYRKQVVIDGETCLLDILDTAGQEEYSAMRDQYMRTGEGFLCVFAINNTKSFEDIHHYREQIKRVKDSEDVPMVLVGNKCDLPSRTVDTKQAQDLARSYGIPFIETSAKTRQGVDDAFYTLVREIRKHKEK
T3 sequence (P01116 1-169 isoform P01116-2 G12V): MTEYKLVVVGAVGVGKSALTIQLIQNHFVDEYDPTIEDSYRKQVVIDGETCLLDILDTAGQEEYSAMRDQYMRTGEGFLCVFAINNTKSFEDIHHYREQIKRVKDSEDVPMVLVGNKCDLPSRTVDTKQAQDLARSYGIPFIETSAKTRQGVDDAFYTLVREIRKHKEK
T1 sequence (P01116 1-169 isoform P01116-2 G12D): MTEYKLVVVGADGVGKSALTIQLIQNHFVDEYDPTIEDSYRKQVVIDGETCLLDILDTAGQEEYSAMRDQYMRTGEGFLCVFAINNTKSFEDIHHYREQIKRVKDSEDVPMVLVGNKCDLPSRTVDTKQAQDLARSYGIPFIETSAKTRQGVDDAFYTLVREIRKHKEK

SMILES	IC50 ([1]; KRAS G12D-GppNHp/RAF1 RBD HTRF)	IC50 ([2]; KRAS G12R-GppNHp/RAF1 RBD HTRF)	IC50 ([3]; KRAS G12V-GppNHp/RAF1 RBD HTRF)	IC50 ([4]; KRAS WT-GppNHp/RAF1 RBD HTRF)	IC50 (GP2d cells (KRAS G12D))	IC50 (SW620 cells (KRAS G12V))	IC50 [1, 5]	IC50 [2, 6]	IC50 [3, 7]	IC50 [4, 8]	IC50 (GP2d cells (KRAS G12D); class symbols)	IC50 (SW620 cells (KRAS G12V); class symbols)	IC50 [1, 9]	IC50 [2, 10]	IC50 [3, 11]	IC50 [4, 12]
N#Cc1c(N)sc2c(F)ccc(-c3c(C(F)(F)F)cc4c(N5C6CC5CS(=O)(=O)C6)nc(OC[C@@]56CCCN5C[C@H](F)C6)nc4c3F)c12 [Compound 357]	100 to 1000 nM	100 to 1000 nM	1000 to 10000 nM	100 to 1000 nM	< 100 nM	100 to 1000 nM	–	–	–	–	–	–	–	–	–	–
N#Cc1c(N)sc2c(F)ccc(-c3c(C(F)(F)F)cc4c(N5C[C@@H]6C[C@H]5CS6(=O)=O)nc(OC[C@@]56CCCN5C[C@H](F)C6)nc4c3F)c12 [Compound 319]	100 to 1000 nM	1000 to 10000 nM	1000 to 10000 nM	1000 to 10000 nM	100 to 1000 nM	100 to 1000 nM	–	–	–	–	–	–	–	–	–	–
N#Cc1c(N)sc2c(F)ccc(-c3c(C(F)(F)F)cc4c(N5CCn6nc(C(=O)N7CCC7)cc6C5)nc(OCC56CCCN5CC(F)C6)nc4c3F)c12 (stereo not drawn) [Compound 626]	–	–	–	–	–	–	100 to 1000 nM	100 to 1000 nM	100 to 1000 nM	100 to 1000 nM	< 100 nM	< 100 nM	–	–	–	–
CCN(c1nc(OC[C@@]23CCCN2C[C@H](F)C3)nc2c(F)c(-c3ccc(F)c4sc(N)c(C#N)c34)c(C(F)(F)F)cc12)[C@H]1CCN(C(=O)OC2CCOCC2)C1 (atropisomer, axis not shown) [Compound 684]	–	–	–	–	–	–	< 100 nM	< 100 nM	< 100 nM	< 100 nM	< 100 nM	< 100 nM	–	–	–	–
Cn1ncc2c1CN(c1nc(OC[C@@]34CCCN3C[C@H](F)C4)nc3c(F)c(-c4ccc(F)c5sc(N)c(C#N)c45)c(C(F)(F)F)cc13)CC2 [Compound 352]	1000 to 10000 nM	> 10000 nM	> 10000 nM	> 10000 nM	100 to 1000 nM	< 100 nM	–	–	–	–	–	–	–	–	–	–
CS(=O)(=O)C1CN(c2nc(OC[C@@]34CCCN3C[C@H](F)C4)nc3c(F)c(-c4ccc(F)c5sc(N)c(C#N)c45)c(C(F)(F)F)cc23)C1 [Compound 223]	–	–	–	–	100 to 1000 nM	100 to 1000 nM	–	–	–	–	–	–	100 to 1000 nM	1000 to 10000 nM	1000 to 10000 nM	100 to 1000 nM
CC(=O)N1C[C@@H](N(C)c2nc(OC[C@@]34CCCN3C[C@H](F)C4)nc3c(F)c(-c4ccc(F)c5sc(N)c(C#N)c45)c(C(F)(F)F)cc23)C[C@H]1CO [Compound 247]	–	–	–	–	< 100 nM	100 to 1000 nM	–	–	–	–	–	–	100 to 1000 nM	100 to 1000 nM	100 to 1000 nM	100 to 1000 nM
CCN(c1nc(OCC23CCCN2CC(F)C3)nc2c(F)c(-c3ccc(F)c4sc(N)c(C#N)c34)c(C(F)(F)F)cc12)C1CCN(C(=O)c2cccnc2)C1 (stereo not drawn) [Compound 715]	–	–	–	–	–	–	< 100 nM	< 100 nM	< 100 nM	< 100 nM	< 100 nM	< 100 nM	–	–	–	–
CCC(=O)N1CC[C@H](N(CC)c2nc(OC[C@@]34CCCN3C[C@H](F)C4)nc3c(F)c(-c4ccc(F)c5sc(N)c(C#N)c45)c(C(F)(F)F)cc23)C1 [Compound 349]	< 100 nM	< 100 nM	100 to 1000 nM	100 to 1000 nM	< 100 nM	< 100 nM	–	–	–	–	–	–	–	–	–	–
CN(C)C(=O)N1CC[C@H]2[C@@H]1CN2c1nc(OC[C@@]23CCCN2C[C@H](F)C3)nc2c(F)c(-c3ccc(F)c4sc(N)c(C#N)c34)c(C(F)(F)F)cc12 (atropisomer, axis not shown) [Compound 728]	–	–	–	–	–	–	1000 to 10000 nM	1000 to 10000 nM	1000 to 10000 nM	1000 to 10000 nM	100 to 1000 nM	100 to 1000 nM	–	–	–	–
CCN(c1nc(OC[C@@]23CCCN2C[C@H](F)C3)nc2c(F)c(-c3ccc(F)c4sc(N)c(C#N)c34)c(C(F)(F)F)cc12)[C@H]1CCN(C(=O)[C@@H](C)OC)C1 (atropisomer, axis not shown) [Compound 570]	–	–	–	–	–	–	< 100 nM	< 100 nM	< 100 nM	< 100 nM	< 100 nM	< 100 nM	–	–	–	–
N#Cc1c(N)sc2c(F)ccc(-c3c(C(F)(F)F)cc4c(N5C[C@H]6C[C@@H]5CS6(=O)=O)nc(OC[C@@]56CCCN5C[C@H](F)C6)nc4c3F)c12 [Compound 322]	100 to 1000 nM	100 to 1000 nM	1000 to 10000 nM	100 to 1000 nM	< 100 nM	100 to 1000 nM	–	–	–	–	–	–	–	–	–	–
CCN(c1nc(OC[C@@]23CCCN2C[C@H](F)C3)nc2c(F)c(-c3ccc(F)c4sc(N)c(C#N)c34)c(C(F)(F)F)cc12)[C@H]1C[C@@H](C)N(C(=O)OC)C1 (atropisomer, axis not shown) [Compound 557]	< 100 nM	< 100 nM	100 to 1000 nM	100 to 1000 nM	< 100 nM	< 100 nM	–	–	–	–	–	–	–	–	–	–
CCN(c1nc(OC[C@@]23CCCN2C[C@H](F)C3)nc2c(F)c(-c3ccc(F)c4sc(N)c(C#N)c34)c(C(F)(F)F)cc12)[C@H]1CCN(C(=O)c2ccsn2)C1 (atropisomer, axis not shown) [Compound 722]	–	–	–	–	–	–	< 100 nM	< 100 nM	< 100 nM	< 100 nM	< 100 nM	< 100 nM	–	–	–	–
CC(=O)N1C[C@@H](C)[C@H](N(C)c2nc(OC[C@@]34CCCN3C[C@H](F)C4)nc3c(F)c(-c4ccc(F)c5sc(N)c(C#N)c45)c(C(F)(F)F)cc23)C1 [Compound 303]	100 to 1000 nM	100 to 1000 nM	100 to 1000 nM	100 to 1000 nM	< 100 nM	100 to 1000 nM	–	–	–	–	–	–	–	–	–	–
C[C@@H]1[C@H](N(C)c2nc(OC[C@]34C[C@@H](F)CN3CC3(CC3)C4)nc3c(F)c(-c4ccc(F)c5sc(N)c(C#N)c45)c(C(F)(F)F)cc23)CCN1C(=O)C1CC1 [Compound 564]	100 to 1000 nM	100 to 1000 nM	1000 to 10000 nM	100 to 1000 nM	< 100 nM	< 100 nM	–	–	–	–	–	–	–	–	–	–
N#Cc1c(N)sc2c(F)ccc(-c3c(C(F)(F)F)cc4c(N5C6CCC5CS(=O)(=O)C6)nc(OC[C@@]56CCCN5C[C@H](F)C6)nc4c3F)c12 [Compound 320]	100 to 1000 nM	1000 to 10000 nM	1000 to 10000 nM	100 to 1000 nM	< 100 nM	< 100 nM	–	–	–	–	–	–	–	–	–	–
N#Cc1c(N)sc2c(F)ccc(-c3c(C(F)(F)F)cc4c(N(C5CC5)[C@H]5CCN(C(=O)[C@@H]6CC6(F)F)C5)nc(OC[C@@]56CCCN5C[C@H](F)C6)nc4c3F)c12 (atropisomer, axis not shown) [Compound 779]	–	–	–	–	–	–	< 100 nM	100 to 1000 nM	100 to 1000 nM	100 to 1000 nM	< 100 nM	< 100 nM	–	–	–	–
N#Cc1c(N)sc2c(F)ccc(-c3c(C(F)(F)F)cc4c(N5CCOCC(O)C5)nc(OC[C@@]56CCCN5C[C@H](F)C6)nc4c3F)c12 (stereo partly drawn) [Compound 266]	–	–	–	–	< 100 nM	< 100 nM	–	–	–	–	–	–	< 100 nM	< 100 nM	100 to 1000 nM	< 100 nM
CCN(c1nc(OC[C@@]23CCCN2C[C@H](F)C3)nc2c(F)c(-c3ccc(F)c4sc(N)c(C#N)c34)c(C(F)(F)F)cc12)[C@H]1C[C@H]2CN(C3CC3)C(=O)N2C1 (atropisomer, axis not shown) [Compound 775]	–	–	–	–	–	–	< 100 nM	< 100 nM	< 100 nM	< 100 nM	< 100 nM	< 100 nM	–	–	–	–
CN(c1nc(OC[C@@]23CCCN2C[C@H](F)C3)nc2c(F)c(-c3ccc(F)c4sc(N)c(C#N)c34)c(C(F)(F)F)cc12)[C@@H]1CC(=O)N2CCC[C@H]12 [Compound 479]	100 to 1000 nM	100 to 1000 nM	100 to 1000 nM	100 to 1000 nM	< 100 nM	< 100 nM	–	–	–	–	–	–	–	–	–	–
CCN(c1nc(OC[C@@]23CCCN2C[C@H](F)C3)nc2c(F)c(-c3ccc(F)c4sc(N)c(C#N)c34)c(C(F)(F)F)cc12)[C@H]1CCN(C(=O)N(C)C(C)C)C1 (atropisomer, axis not shown) [Compound 585]	–	–	–	–	–	–	< 100 nM	< 100 nM	< 100 nM	< 100 nM	< 100 nM	< 100 nM	–	–	–	–
